The subject of one test is U2OS cells. The test can be described thus: FACS cell cycle / apoptosis analysis in U2OS cells, EZH2 RNA interference plus ADR or ETO. The test is classed as cell-based, human. The conditions noted are these: control (non-knockdown) U2OS cells treated with the DNA damaging agent alone; FIG. 1A. As for the experimental part: (§1) The human colorectal cancer HCT116 cells were kindly provided by Dr. Bert Vogelstein (John Hopkins University, MD). Other cell lines used in this study, including human osteosarcoma U2OS and Saos-2 and breast cancer MCF7 were obtained from the American Type Culture Collection (ATCC) and maintained in Dulbecco's modified Eagle medium (DMEM) supplemented with 10% fetal bovine serum (FBS) and antibiotics in a 37° C. humidified incubator containing 5% CO2. Human breast epithelial MCF10A cells were obtained from ATCC and maintained as recommended (Kadota et al 2010). Adramycin (ADR), Etopside (ETO), Nocodazole (Noco), proteasomal inhibitors MG132 and MG115 were purchased from Sigma-Aldrich.
Specific siRNA oligos targeting EZH2 (as described above) and FBXO32 (FBXO32 siRNA: 5_-GTCACATCCTTTCCTGGAA-3_) mRNAs were used. The non-targeting control was purchased from Dharmacon (Lafayett, Colo.). For EZH2 knockdown, a sequential twice knockdown is performed to secure efficient gene silencing. […]
Cells were harvested and fixed in 70% ethanol. […] The stained cells were analyzed for DNA content by fluorescence-activated cell sorting (FACS) in a FACS Calibur (Becton Dickinson Instrument, San Jose, Calif.). Cell cycle fractions were quantified using the CellQuest software (Becton Dickinson). […]

The subject of test [1] is U2OS, HCT116, Saos-2 and p53-deficient HCT116 cells. Nature of the test: FACS cell cycle / apoptosis analysis, DZNep combined with ADR or ETO in cancer cells. It counts as cell-based, human. Here is the method:
as §1
(§2) Cells were harvested and fixed in 70% ethanol. Fixed cells were stained with propidium iodide (50 μg/mL) after treatment with RNase (100 μg/mL). The stained cells were analyzed for DNA content by fluorescence-activated cell sorting (FACS) in a FACS Calibur (Becton Dickinson Instrument, San Jose, Calif.). Cell cycle fractions were quantified using the CellQuest software (Becton Dickinson). For synchronization experiment, HCT116 cells expressing FBXO32 or empty vector were treated with Nocodazole (400 ng/ml) for 16 h, mitotically arrested cells were treated with ADR and then subject to FACS for cell cycle analysis.

A further test has as its system FBXO32, p21, p-Chk1. The test can be described thus: Immunoblot analysis of FBXO32, p21 and Chk1 phosphorylation after DZNep with ADR or ETO. The test is classed as cell-based, human. As for the experimental part:
as §1
Protein extracts were prepared by lysis in RIPA buffer containing (50 mM Tris-HCl, pH 7.4, 150 mM NaCl, 1% Nonidet P-40, 0.5% sodium deoxycholate, 0.1% SDS, 1 mM EDTA, 50 mM NaF, 0.1 mM Na3VO4) and protease inhibitor cocktail (Roch). Lysates were resolved by SDS-PAGE, transferred onto a immobilon membrane (Millipore) and probed with indicated antibodies. For co-immunoprecipitation experiments, cells were lysed and incubated with the indicated antidodies and protein G-seperose beads overnight at 4° C. Beads were washed four times with lysis buffer. The bound proteins were dissolved in SDS sample buffer, resolved by SDS-PAGE, and immunoblotted with the indicated antibodies. Where indicated, proteosome inhibitors MG-132 (5 μM) or MG-115 (20 μM) were used to treat cells for 8 h before protein extraction. Antibodies used in this study include: anti-EZH2 (Cell Signaling), anti-p21 (Santa Cruz), anti-FBXO32 (Santa Cruz), anti-p53 (Santa Cruz), anti-MDM2 (Santa Cruz), anti-phospho-Chk1 (Cell signaling), anti-Chk1 (Santa Cruz), anti-phospho-Chk2 (Cell signaling), anti-Chk2 (Upstate), anti-H3 (Cell signaling), anti-PARP (Cell Signaling), anti-H3K27me3 (Upstate), anti-actin mouse monoclonal (Sigma).

Test [2] concerns non-transformed MCF-10A, IMR90 and RWEP cells. The test can be described thus: ADR or ETO-induced apoptosis in non-transformed cells with DZNep. The test is classed as cell-based, human. The conditions noted are these: data not shown. As for the experimental part: as §1, §2
For the next test, the system named is p21 mRNA. Nature of the test: p21 mRNA level (Taqman quantitative real-time PCR). Particulars: DZNep with ADR or ETO; data not shown. The test is classed as cell-based, human. Here is the method: Total RNA was isolated using Trizol (Invitrogen) and purified with the RNeasy Mini Kit (Qiagen). Reverse transcription was performed using an RNA Amplification kit (Ambion). Quantitative real-time PCR was assessed using the PRISM 7900 Sequence Detection System (Applied Biosystems) with specific probes from Applied Biosystem. Samples were normalized to the levels of GAPDH mRNA.

A further test deals with EZH2 complex. Particulars: cancer cells; previously shown (Tan et al., 2007); cited from earlier work.

Residues, ends and D or L forms follow the SMILES beside them. *: point of attachment. Cbz = O=C(OCc1ccccc1)*

Take `COc1cccc2c1C(=O)c1c(O)c3c(c(O)c1C2=O)C[C@@](O)(C(=O)CO)C[C@@H]3O[C@H]1C[C@H](N)[C@H](O)[C@H](C)O1` [Adriamycin]: the “cell cycle arrest / apoptosis in control cells” value in the test on U2OS cells was “mainly cell cycle arrested with little apoptosis”.

Regarding `Nc1nccc2c1ncn2[C@@H]1C=C(CO)[C@@H](O)[C@H]1O` [DZNep, 3-Deazaneplanocin A], the “effect of DZNep on DNA damage-induced apoptosis, p21 and p-Chk1 when FBXO32 is knocked down” value in test [1] (HCT116 cells with FBXO32 knockdown, FIGS. 4E, 4F) is “largely abolished when FBXO32 was knockdown”. Also, in test [1] (combination of DZNep with ADR or ETO, HCT116 or U2OS cells, FIG. 4A), the “checkpoints activation (FACS)” value is “abrogates checkpoints activation”. The “checkpoints (FACS), p53-deficient cells” value in test [1] (combination of DZNep with ADR or ETO, p53-deficient HCT116 or Saos-2 cells, FIG. 4C) is reported as “abrogates checkpoints”. For the same compound, the “effect on ADR or ETO-induced cell cycle arrest / apoptosis” value in test [1] (pretreatment with DZNep, then ADR or ETO, p53-proficient U2OS and HCT116, p53-deficient Saos-2 and HCT116 cells, FIGS. 4A, 4C) was “converted ADR or ETO-induced cell cycle arrest to marked apoptosis”. Moreover, the “p21 and/or p-Chk1 induction by ADR or ETO” value in the test on FBXO32, p21, p-Chk1 (DZNep with ADR or ETO, U2OS, HCT116, Saos-2, p53-deficient HCT116, FIGS. 4B, 4D) is “largely abolished”. Also, the FBXO32 induction result in the test on FBXO32, p21, p-Chk1 (EZH2 depletion by DZNep, U2OS, HCT116, Saos-2, p53-deficient HCT116, FIGS. 4B, 4D) is “accompanied with FBXO32 induction”. Further, the “ADR or ETO-induced p21 accumulation and Chk1 phosphorylation” value in the test on FBXO32, p21, p-Chk1 (combination of DZNep with ADR or ETO, HCT116 and U2OS cells, FIG. 4B) is on record as “abolishes”. Besides, in the test with FBXO32, p21, p-Chk1 (combination of DZNep with ADR or ETO, p53-deficient HCT116 and Saos-2 cells, FIG. 4D), the “DNA damage induced p21 accumulation and Chk1 phosphorylation, p53-deficient cells” value was “abolishes”. In test [2], the “promotion of ADR or ETO-induced apoptosis in non-transformed cells” value is “did not promote”. In addition, the “p21 mRNA as cause of p21 protein downregulation” value with p21 mRNA is “not due to a decrease in p21 mRNA”. In addition, in the test on EZH2 complex, the “depletion of EZH2 complex” value is reported as “can deplete EZH2 complex”.

`COc1cc([C@@H]2c3cc4c(cc3[C@@H](O[C@@H]3O[C@@H]5CO[C@@H](C)O[C@H]5[C@H](O)[C@H]3O)[C@H]3COC(=O)[C@H]23)OCO4)cc(OC)c1O` [Etoposide]: the “cell cycle arrest / apoptosis in control cells” value with U2OS cells was “mainly cell cycle arrested with little apoptosis”.

For the compound `CC(C)C[C@@H](C=O)NC(=O)[C@H](CC(C)C)NC(=O)[C@H](CC(C)C)NC(=O)OCc1ccccc1` [MG132] (Cbz-Leu-Leu-Leu-aldehyde), in the test on FBXO32, p21, p-Chk1 (MG132 added, data not shown), the “p21 protein downregulation by DZNep with ADR or ETO, effect of proteasome inhibitor” value is recorded as “prevented”.

Values taken from US20130210024A1, “COMBINATION TREATMENT OF CANCER” (Agency for Science, Technology and Research, priority 2010, published 2013).
